From US20050240034A1, “Artemisinin-based peroxide compounds as broad spectrum anti-infective agents” (priority 2002, published 2005)

Key:
[1] = system: P. falciparum Indochina W2 clone; assay: WHO/TDR in vitro antimalarial screen, W2 clone; type: cell-based, Plasmodium falciparum; settings: chloroquine-resistant, mefloquine-sensitive, second value in brackets not explained
Experimental: (§1) All test compounds are solubilized in DMSO and diluted 400 fold (to rule out a DMSO effect) in culture medium with plasma for a starting concentration of at least 12,500 ng/mL. Drugs are subsequently diluted five fold using the Cetus Pro/Pette system utilizing a range of concentrations from 0.8 ng/mL to 12,500 ng/mL. Fifty percent inhibitory concentrations are reported in ng/mL.
(§2) The D6 African P. falciparum clone is sensitive to chloroquine, pyrimethamine and sulfadoxine but resistant to mefloquine. The W2 Indochina P. falciparum clone is resistant to chloroquine, pyrimethamine and sulfadoxine but sensitive to mefloquine. The K1 P. falciparum is a resistant strain, where NF54 P. falciparum is a sensitive strain.

aqueous solubility = type: physicochemical; settings: pH 6.5, phosphate buffer
Experimental: (§3) Compounds 39 and 36 have reasonably low plasma LOQ of about 10 ng/mL, so it will be tested with lower oral doses in the coming future. If we assume that it is only the fraction of drug in solution that is absorbed, then the oral bioavailabilities may well increase with lower doses.

[2] = system: P. falciparum W2 (IndoChina); assay: antimalarial parasite LDH (pLDH) assay, W2; type: cell-based, Plasmodium falciparum; settings: for P. falciparum (IC50) W2: LDH assay, Table 6; for S. I. (W2): Selectivity Index = IC50 (Vero cells)/IC50 (P. falciparum)
Experimental: (§4) The Thad Cochran National Center for Natural Products Research (University of Mississippi) in vitro antimalarial screen was conducted using an enzyme assay for detection of P. falciparum (see procedure below). This assay is based on the observation that lactate dehydrogenase (LDH) of P. falciparum is distinguishable from host LDH activity. P. falciparum LDH rapidly uses 3-acetyl pyridine nicotinamide adenine dinucleotide (APAD) as a coenzyme in the biotransformation of […].^38 The same process is carried out in human red blood cells at a very slow rate.
(§5) The “Antimalarial parasite LDH assay” is currently being conducted according the following procedure: prepare a suspension of RBC with a 2% parasitemia and 2% hematocrit in malaria complete medium. Dispense 200 μl aliquots of this suspension into each well of a 96 well microtiter plate. Add 10 μl volumes of the drugs to be tested in duplicate to the appropriate wells. Place the plates into humidified chamber and flush the cultures with a gas mixture consisting of 90% N2, 5% O2, and 5% CO2. Transfer the chamber containing the plates to an incubator, and incubate for 48 hours at 37° C. After 48 hours add 100 μl aliquots of the Malstat™ reagent to each well of a new 96-well microtiter plate Resuspend the cultures from the assay plate by mixing each well up and down several times. Remove 20 μl from each well of the resuspend culture and add to the plate containing the Malstat™ reagent. Incubate the plates at room temperature for 30 minutes. After 30 minutes, add to each well 20 μl of the 1:1 mixture of the NBT/PES solution (2 mg/ml and 0.1 mg/ml, respectively). Incubate the plates in the dark for 1 hour. Add 100 μl of 5% acetic acid solution to stop the reaction. The plate is then read at an endpoint of approximately 650 nm. The dose response curves are generated using Microsoft Excel.
(§6) Antimalarial activity of the analogues was determined in vitro on chloroquine sensitive (D)6, Sierra Leone) and resistant (W2, IndoChina) strains of Plasmodium falciparum. The 96 well microplate assay is based on evaluation of the effect of the compounds on the growth of asynchronous cultures of P. falciparum, determined by the assay of parasite lactate dehydrogenase (pLDH) activity.^28 The appropriate dilutions of the compounds were prepared in DMSO or RPMI-1640 medium and added to the cultures of P. falciparum (2% hematocrit, 2% parasitemia) set up in clear flat bottomed 96 well plates. The plates were placed into the humidified chamber and flushed with a gas mixture of 90% N2, 5% CO2 & 5% O2. The cultures were incubated at 37° C. for 48 hours. Growth of the parasite in each well was determined by pLDH assay using Malstat® reagent. The medium and RBC controls were also set-up in each plate.

[3] = pharmacokinetics in rats after intravenous and oral administration; type: in vivo; settings: for absolute oral bioavailability: high oral dose (~120 mg/kg)
Experimental: Preliminary data for the PK results of compounds 39 and 36 have been disclosed. […] Due to their very low aqueous solubility, the absolute oral bioavailability of each compound was low. The low value is rather a function of the high oral dose (˜120 mg/kg), but even with these high doses, the plasma concentrations are still relatively low.
The reason for the use of high oral dose is that the LC/MS assay has different intrinsic sensitivities for the different series of the Malperox compounds. Also, in order to compare all compounds from the different series at the same oral molar dose (dictated by the compound, which has the highest LOQ in the assay), it was necessary for them to have gone with this dose.
as §3
Solubility limitations meant that 36 could only be dosed IV at approximate 2 mg/kg (compared with the approximate 12 mg/kg dose for 39). It is possible that the shorter measured half life for 36 was a function of lower plasma concentrations, which have reflected part of the distribution phase rather than a true elimination phase.

P. yoelli ssp. NS = assay: in vivo 4-day antimalarial test in mice, P. yoelli ssp. NS; settings: subcutaneous; unit not given
Experimental: (§7) The parasitemia is determined on the day following the last treatment—day 4 to determine qualitatively the presence and degree of activity at the screening dose.

P. berghei N = assay: in vivo Peter's 4-day antimalarial test in mice, P. berghei N; settings: mice, 4-day test, unit not given; for P. berghei N P.O. ED50 / P. berghei N P.O. ED90: oral; for P. berghei N S.C. ED50 / P. berghei N S.C. ED90: subcutaneous
Experimental: as §7

P. falciparum K1 = assay: WHO/TDR in vitro antimalarial screen, K1; type: cell-based, Plasmodium falciparum; settings: K1, chloroquine-resistant
Experimental: as §1, with “[…]. All” for “All”
as §2

[4] = system: P. falciparum D6 (Sierra Leone); assay: antimalarial parasite LDH (pLDH) assay, D6; type: cell-based, Plasmodium falciparum; settings: for P. falciparum (IC50) D6: LDH assay, Table 6; for S. I. (D6): Selectivity Index = IC50 (Vero cells)/IC50 (P. falciparum)
Experimental: as §4, §5
as §6, with “plate. The standard antimalarial agents, chloroquine and artemisinin, were used as the positive controls while DMSO was tested as the negative control.” for “plate.”

[5] = system: VERO cells (monkey kidney fibroblast); type: cell-based
Experimental: Antileishmanial activity of the compounds was tested on a transgenic cell line of Leishmania donovani promastigotes expressing firefly luciferase.^29a In a 96 well microplate assay, compounds with appropriate dilution were added to the leishmania promastigotes culture (2×10^6 cell/mL). The plates were incubated at 26° C. for 72 hours and growth of leishmania promastigotes was determined by luciferase assay with Steady Glo® reagent (Promega, USA). Pentamidine and Amphotericin B were used as standard antileishmanial agents. The analogues were simultaneously tested for cytotoxicity on VERO cells (monkey kidney fibroblast) by Neutral Red assay.^29b IC50 values for the compounds were computed from the growth inhibition curve.

P. falciparum NF54 = assay: WHO/TDR in vitro antimalarial screen, NF54; type: cell-based, Plasmodium falciparum; settings: NF54, chloroquine-sensitive; second value in brackets not explained
Experimental: as §1, with “[…]. All” for “All”
as §2

[6] = system: P. falciparum Sierra Leone D6 clone; assay: WHO/TDR in vitro antimalarial screen (uptake of radiolabeled nucleic acid precursor), D6 clone; type: cell-based, Plasmodium falciparum; settings: mefloquine-resistant, chloroquine-sensitive, second value in brackets not explained
Experimental: as §1, §2

P. falciparum = settings: cited from earlier work

Molecule	P. falciparum (IC50) W2 [1] [µg/mL]	aqueous solubility (aqueous solubility) [microgram per mL]	P. falciparum (IC50) W2 [2] [µg/mL]	S. I. (W2) [2]	absolute oral bioavailability [3]	P. yoelli ssp. NS (S.C.) ED50 (P. yoelli ssp. NS)	P. yoelli ssp. NS (S.C.) ED90 (P. yoelli ssp. NS)	P. berghei N P.O. ED50 (P. berghei N)	P. berghei N P.O. ED90 (P. berghei N)	P. berghei N S.C. ED50 (P. berghei N)	P. berghei N S.C. ED90 (P. berghei N)	P. falciparum (IC50) K1 (P. falciparum K1) [µg/mL]	P. falciparum (IC50) D6 [4] [µg/mL]	S. I. (D6) [4]	Cytotoxicity (Vero) TC50 [5]	P. falciparum (IC50) NF54 (P. falciparum NF54)	P. falciparum (IC50) D6 [6] [µg/mL]	half-life ([3]; IV, approximate 12 mg/kg) [h]	times more potent than the parent compound (artemisinin) in vitro (P. falciparum)
(+)-Octahydro-3,6α-dimethyl-3,12-epoxy-9β-(3′-(m-chlorophenyl)propyl)-12H-pyrano[4,3j]-1,2-benzodioxepin [Compound 36]	0.0216	~0.1	0.008	>60	low	0.60 (0.4-1.0)	1.00 (0.8-1.8)	2.0 (0.9-3.5)	8.3 (3.5-14.0)	0.5 (0.1-1.0)	0.9 (0.3-1.8)	0.01007	0.0076	>63.0	NC^b	16.27 (40.19) ng/mL	0.00755		
(+)-Octahydro-3,6α-dimethyl-3,12-epoxy-9β-(3′-(p-trifluoromethylphenyl)propyl)-12H-pyrano[4,3j]-1,2-benzodioxepin [Compound 39]	0.05801	~0.1	0.012	>40	low	0.67 (0.5-0.88)	1.25 (0.95-1.6)	0.63 (0.32-1.25)	2.1 (1.1-4.1)	0.44 (0.25-0.62)	0.85 (0.5-1.2)	0.03955	0.012	>40		101.52 (48.78) ng/mL	0.02813	1.22	
C[C@H]1[C@@H](O)O[C@@H]2O[C@@]3(C)CC[C@H]4[C@H](C)CC[C@@H]1[C@@]24OO3 [dihydroartemisinin]																			approximately 10 times
